Data published in ChEMBL document CHEMBL4270507, “Covalent binding design strategy: A prospective method for discovery of potent targeted anticancer agents” (Eur J Med Chem, 2017).

How the values were obtained:
[1] = tested on: GTPase KRas (Homo sapiens), P01116 [G12C]; test: Binding affinity to hexa-histidine-tagged recombinant human K-Ras isoform 2 G12C mutant (1 to 169 residues) expressed in Escherichia coli BL21 (DE3) at 10 uM after 24 hrs
[2] = molecular target: Tyrosine-protein kinase BTK (Homo sapiens, UniProt Q06187); test: Inhibition of BTK (unknown origin)

Activity [1] [%]	IC50 [2] [nM]	SMILES
100		C=CS(=O)(=O)NC1CCN(C(=O)CNc2cc(I)c(Cl)cc2OC)CC1
87		C=CS(=O)(=O)NC1CCN(C(=O)CNc2cc(Cl)c(Cl)cc2O)CC1
100		C=CC(=O)N1CCN(C(=O)CNc2cc(I)c(Cl)cc2O)CC1
14		C=CC(=O)N1CCN(C(=O)CNc2cc(C(F)(F)F)c(Cl)cc2OC)CC1
28		C=CC(=O)N1CCN(C(=O)CNc2cc(Cl)c(Cl)cc2OC)CC1
	0.52	Nc1ncnc2c1c(-c1ccc(Oc3ccccc3)cc1)nn2C1CCCN(C(=O)/C=C/Cl)C1 (configuration not stated)
50		C=CS(=O)(=O)NC1CCN(C(=O)CNc2c(Cl)cc(Cl)c3c2OC(C)(C)O3)CC1
